Assay [1] concerns the target PDE4 (Homo sapiens, UniProt Q08499). Description: In-vitro assay for PDE4 enzymes, real-time enzyme-coupled spectrophotometric assay (Table 9). The class given is biochemical. To be noted: human PDE4D; activity class, Table 9; read-out: hPDE4D.
The target in assay [2] is PDE4B (Homo sapiens, UniProt Q07343). In words: In-vitro assay for PDE4 enzymes, real-time enzyme-coupled spectrophotometric assay, PDE4B Activity (Table 10). The class given is biochemical. The note with it: human PDE4B (hPDE4B), enzyme-coupled spectrophotometric assay; read-out: PDE4B Activity, hPDE4B.

This passage reports IC50 results from patent US8791267B2, “Biaryl PDE4 inhibitors for treating inflammatory, cardiovascular and CNS disorders” (Decode Genetics EHF, priority 2007, dated 2014).

Chain of PDE4B (Q07343 whole entry): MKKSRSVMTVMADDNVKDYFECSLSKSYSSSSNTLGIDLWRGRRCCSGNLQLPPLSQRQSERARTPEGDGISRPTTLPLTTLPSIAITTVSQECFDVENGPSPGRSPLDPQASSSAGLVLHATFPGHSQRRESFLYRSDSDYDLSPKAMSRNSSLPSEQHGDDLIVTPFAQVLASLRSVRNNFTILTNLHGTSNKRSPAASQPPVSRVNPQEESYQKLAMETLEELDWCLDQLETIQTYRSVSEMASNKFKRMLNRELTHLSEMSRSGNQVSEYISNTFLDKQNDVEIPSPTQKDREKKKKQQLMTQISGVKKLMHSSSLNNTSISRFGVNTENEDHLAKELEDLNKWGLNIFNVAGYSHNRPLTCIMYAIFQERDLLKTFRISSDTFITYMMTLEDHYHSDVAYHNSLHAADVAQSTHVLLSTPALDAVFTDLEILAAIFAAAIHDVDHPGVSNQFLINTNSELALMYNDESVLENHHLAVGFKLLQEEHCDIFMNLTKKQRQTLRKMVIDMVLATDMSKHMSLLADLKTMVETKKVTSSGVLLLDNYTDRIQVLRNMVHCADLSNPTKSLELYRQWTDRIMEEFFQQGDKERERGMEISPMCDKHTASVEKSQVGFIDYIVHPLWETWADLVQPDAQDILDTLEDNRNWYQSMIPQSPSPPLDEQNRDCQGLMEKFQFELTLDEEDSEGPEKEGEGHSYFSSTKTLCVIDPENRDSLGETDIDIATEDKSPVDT
Chain of PDE4 (Q08499 whole entry): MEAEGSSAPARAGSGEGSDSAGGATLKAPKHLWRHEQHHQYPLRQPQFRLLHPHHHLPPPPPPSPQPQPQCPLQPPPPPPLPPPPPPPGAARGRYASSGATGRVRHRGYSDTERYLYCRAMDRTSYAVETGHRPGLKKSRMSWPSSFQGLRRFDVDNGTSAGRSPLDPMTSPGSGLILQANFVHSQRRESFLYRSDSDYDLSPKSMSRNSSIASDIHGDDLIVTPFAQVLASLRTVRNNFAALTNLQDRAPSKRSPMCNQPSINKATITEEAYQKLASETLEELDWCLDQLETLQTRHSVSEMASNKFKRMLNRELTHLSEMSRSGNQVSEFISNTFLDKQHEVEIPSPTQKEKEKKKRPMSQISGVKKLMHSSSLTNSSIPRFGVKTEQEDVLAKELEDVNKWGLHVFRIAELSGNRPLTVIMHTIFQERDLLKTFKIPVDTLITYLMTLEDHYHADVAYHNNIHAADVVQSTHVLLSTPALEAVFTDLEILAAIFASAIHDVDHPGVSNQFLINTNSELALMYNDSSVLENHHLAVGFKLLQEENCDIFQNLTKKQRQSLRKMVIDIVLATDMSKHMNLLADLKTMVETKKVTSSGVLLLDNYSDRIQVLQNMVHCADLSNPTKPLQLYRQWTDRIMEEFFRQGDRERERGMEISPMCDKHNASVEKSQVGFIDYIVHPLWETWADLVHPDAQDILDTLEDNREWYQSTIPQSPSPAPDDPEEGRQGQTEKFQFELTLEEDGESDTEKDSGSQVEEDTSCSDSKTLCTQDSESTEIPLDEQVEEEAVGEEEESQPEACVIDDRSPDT

`COc1ccc(CN2C(=O)CC[C@H]2CO)cc1-c1cccc([N+](=O)[O-])c1` [P-131, (S)-5-Hydroxymethyl-1-(6-methoxy-3′-nitro-biphenyl-3-ylmethyl)-pyrrolidin-2-one]: the IC50 in assay [1] and in assay [2] was 5 to 20 µM throughout.

On to `COc1ccc(Cc2ccccc2CN)cc1-c1cccc([N+](=O)[O-])c1` [P-133], for which the IC50 in assay [1] and in assay [2] was 5 to 20 µM each time.

`COc1ccc(Cc2ccccc2CO)cc1-c1cccc([N+](=O)[O-])c1` [P-134, [2-(6-Methoxy-3′-nitro-biphenyl-3-ylmethyl)-phenyl]-methanol]: the values for the IC50 in assay [1] and in assay [2] were under 5 µM and 5 to 20 µM, respectively.

With `COc1ccc(Cc2ccc(F)c(CO)c2)cc1-c1cccc([N+](=O)[O-])c1` [P-135], the IC50 in assay [1] and in assay [2] was under 5 µM in each case.

Regarding `COc1ccc(Cc2ccc(N)cc2)c(F)c1-c1cccc([N+](=O)[O-])c1` [P-136], the IC50 in assay [1] and in assay [2] was under 5 µM in each case.

With `COc1ccc(Cc2ccc(C#N)cc2)c(O)c1-c1cccc([N+](=O)[O-])c1` [P-138, 4-(2-Hydroxy-6-methoxy-3′-nitro-biphenyl-3-ylmethyl)-benzonitrile], the IC50 in assay [1] and in assay [2] was under 5 µM each time.

For the compound `COc1ccc(Cc2ccc(F)cc2)cc1-c1cccc(C(C)=O)c1` [P-140, 1-[5′-(4-Fluoro-benzyl)-2′-methoxy-biphenyl-3-yl]-ethanone], the IC50 in assay [1] and in assay [2] was under 5 µM in each case.

Regarding `COc1ccc(Cc2ccc(O)cc2)cc1-c1cccc([N+](=O)[O-])c1` [P-142], the IC50 in assay [1] and in assay [2] was under 5 µM throughout.

Consider `COc1ccc(Cc2ccc(NC(=O)CNC(=O)OC(C)(C)C)cc2)cc1-c1cccc([N+](=O)[O-])c1` [P-143], for which the IC50 in assay [1] and in assay [2] was under 5 µM throughout.

`COc1ccc(Cc2ccc(NC(=O)CN(C)C)cc2)cc1-c1cccc([N+](=O)[O-])c1` [P-144]: the IC50 in assay [1] and in assay [2] was under 5 µM in each case.

For the compound `COc1ccc(Cc2ccc(NC(=O)CN)cc2)cc1-c1cccc([N+](=O)[O-])c1` [P-145], the IC50 in assay [1] and in assay [2] was under 5 µM in each case.

`COc1ccc(Cc2ccc(NC(=O)CCN3CCCCC3)cc2)cc1-c1cccc([N+](=O)[O-])c1` [P-146]: the IC50 was under 5 µM in assay [1] and 5 to 20 µM in assay [2].

As for `COc1ccc(Cc2ccc(NC(=O)CN(C)C)cc2)c(F)c1-c1cccc([N+](=O)[O-])c1` [P-147], the IC50 in assay [1] and in assay [2] was under 5 µM in each case.

Turning to `COc1ccc(Cc2ccc(CN)cc2)c(F)c1-c1cccc([N+](=O)[O-])c1` [P-148], the IC50 in assay [1] and in assay [2] was under 5 µM in each case.

For `COc1ccc(Cc2ccc(OCCN(C)C)nc2)c(O)c1-c1cccc([N+](=O)[O-])c1` [P-150], the IC50 in assay [1] and in assay [2] was 5 to 20 µM throughout.

Consider `COc1ccc(Cc2ccc(Cl)nc2)c(F)c1-c1cccc([N+](=O)[O-])c1` [P-152], for which the IC50 in assay [1] and in assay [2] was under 5 µM throughout.

As for `COc1ccc(Cn2cncc2CO)cc1-c1cccc([N+](=O)[O-])c1` [P-153, [3-(6-Methoxy-3′-nitro-biphenyl-3-ylmethyl)-3H-imidazol-4-yl]-methanol], the results for the IC50 in assay [1] and in assay [2] were under 5 µM and 5 to 20 µM, respectively.

Consider `COc1ccc(Cn2cnc(CO)c2)cc1-c1cccc([N+](=O)[O-])c1` [P-154, [1-(6-Methoxy-3′-nitro-biphenyl-3-ylmethyl)-1H-imidazol-4-yl]-methanol], for which the IC50 in assay [1] and in assay [2] was under 5 µM in each case.

Turning to `COc1ccc(CN2C(=O)CC[C@H]2CN)cc1-c1cccc([N+](=O)[O-])c1` [P-155, (S)-5-Aminomethyl-1-(6-methoxy-3′-nitro-biphenyl-3-ylmethyl)-pyrrolidin-2-one], the figures for the IC50 in assay [1] and in assay [2] were 20 to 40 µM and 5 to 20 µM, respectively.

With `COc1ccc(CN2C(=O)CC[C@@H]2CN)cc1-c1cccc([N+](=O)[O-])c1` [P-156, (R)-5-Aminomethyl-1-(6-methoxy-3′-nitro-biphenyl-3-ylmethyl)-pyrrolidin-2-one], the IC50 in assay [1] and in assay [2] was under 5 µM in each case.

`COc1ccc(Cc2ccc(NC(=O)CCN)cc2)cc1-c1cccc([N+](=O)[O-])c1` [P-159]: the IC50 in assay [1] and in assay [2] was under 5 µM in each case.

In the case of `COc1ccc(Cc2cccc(CN)c2)cc1-c1cccc([N+](=O)[O-])c1` [P-161, 3-(6-Methoxy-3′-nitro-biphenyl-3-ylmethyl)-benzylamine], the IC50 in assay [1] and in assay [2] was 5 to 20 µM in each case.

Consider `COc1ccc(CN2CCCC2=O)cc1-c1ccccc1` [P-162, 1-(6-Methoxy-biphenyl-3-ylmethyl)-pyrrolidin-2-one], for which the IC50 in assay [1] and in assay [2] was 5 to 20 µM each time.

For the compound `COc1ccc(Cc2ccc(OCCN(C)C)cc2)cc1-c1cccc([N+](=O)[O-])c1` [P-164], the IC50 in assay [1] was under 5 µM; in assay [2], 5 to 20 µM.

As to `COc1ccc(Cc2ccc(OCCN3CCCC3)cc2)cc1-c1cccc([N+](=O)[O-])c1` [P-165], the IC50 was under 5 µM in assay [1] and 5 to 20 µM in assay [2].

For the compound `COc1ccc(Cc2ccc(OCCN3CCCCC3)cc2)cc1-c1cccc([N+](=O)[O-])c1` [P-166], the IC50 in assay [1] and in assay [2] was under 5 µM in each case.

For `COc1ccc(Cc2ccc(NC(C)=O)cc2)c(F)c1-c1cccc(Br)c1` [P-168], the IC50 in assay [1] and in assay [2] was under 5 µM throughout.

With `COc1ccc(Cc2ccc(OCCN3CCOCC3)cc2)cc1-c1cccc([N+](=O)[O-])c1` [P-171], the IC50 in assay [1] and in assay [2] was under 5 µM each time.

Regarding `COc1ccc(CN2CCCC2=O)cc1-c1cccc(C(C)=O)c1` [P-172, 1-(3′-Acetyl-6-methoxy-biphenyl-3-ylmethyl)-pyrrolidin-2-one], the IC50 in assay [1] and in assay [2] was under 5 µM in each case.

With `COc1ccc(Cc2ccc(-n3cccn3)cc2)c(O)c1-c1cccc([N+](=O)[O-])c1` [P-173, 6-Methoxy-3′-nitro-3-(4-pyrazol-1-yl-benzyl)-biphenyl-2-ol], the IC50 in assay [1] and in assay [2] was under 5 µM throughout.

As to `COc1ccc(Cc2c(C)noc2C)c(O)c1-c1cccc([N+](=O)[O-])c1` [P-174], the IC50 in assay [1] and in assay [2] was under 5 µM each time.

For the compound `COc1ccc(Cc2ccc(CNC(=O)CN(C)C)cc2)c(F)c1-c1cccc([N+](=O)[O-])c1` [P-175], the IC50 in assay [1] and in assay [2] was under 5 µM in each case.

`COc1ccc(Cc2ccc(F)cc2)c(N)c1-c1cccc([N+](=O)[O-])c1` [P-176, 3-(4-fluoro-benzyl)-6-methoxy-3′-nitro-biphenyl-2-ylamine]: the IC50 in assay [1] and in assay [2] was under 5 µM in each case.

For the compound `COc1ccc(Cn2ccccc2=O)cc1-c1cccc(C(C)=O)c1` [P-179, 1-(3′-Acetyl-6-methoxy-biphenyl-3-ylmethyl)-1H-pyridin-2-one], the IC50 in assay [1] and in assay [2] was 5 to 20 µM in each case.

Turning to `COc1ccc(Cc2ccc(C=O)cc2)c(O)c1-c1cccc([N+](=O)[O-])c1` [P-180, 4-(2-Hydroxy-6-methoxy-3′-nitro-biphenyl-3-ylmethyl)-benzaldehyde], the IC50 in assay [1] and in assay [2] was under 5 µM in each case.

`COc1ccc(Cc2ccc(NC(N)=O)cc2)c(F)c1-c1cccc([N+](=O)[O-])c1` [P-181]: the IC50 in assay [1] and in assay [2] was under 5 µM throughout.

Take `COc1ccc(Cc2cccnc2Cl)c(O)c1-c1cccc(N)c1` [P-182]: the IC50 is 5 to 20 µM in assay [1] and 21 to 40 µM in assay [2].

On to `COc1ccc(Cc2ccc(CO)cc2)c(O)c1-c1cccc([N+](=O)[O-])c1` [P-183, 3-(4-Hydroxymethyl-benzyl)-6-methoxy-3′-nitro-biphenyl-2-ol], for which the IC50 in assay [1] and in assay [2] was under 5 µM in each case.

Take `COc1cccc(-c2cc(CN3CCCC3=O)ccc2OC)c1` [P-184, 1-(6,3′-Dimethoxy-biphenyl-3-ylmethyl)-pyrrolidin-2-one]: the IC50 in assay [1] and in assay [2] was 5 to 20 µM throughout.

On to `COc1ccc(Cc2ccc[nH]c2=O)c(O)c1-c1cccc(N)c1` [P-185], for which the IC50 in assay [1] lay in the range of 5 to 20 µM; in assay [2], 21 to 40 µM.

Regarding `COc1ccc(CN2CCCC2=O)cc1-c1cccc(-c2nnco2)c1` [P-186], the results for the IC50 in assay [1] and in assay [2] were 20 to 40 µM and 21 to 40 µM, respectively.

With `COc1ccc(Cc2ccc(F)cc2)c(F)c1-c1cccc(Cl)c1` [P-187], the IC50 in assay [1] and in assay [2] was under 5 µM in each case.

Consider `COc1ccc(CN2CCCCC2=O)cc1-c1cccc([N+](=O)[O-])c1` [P-188, 1-(6-Methoxy-3′-nitro-biphenyl-3-ylmethyl)-piperidin-2-one], for which the IC50 in assay [1] and in assay [2] was under 5 µM in each case.

With `COc1ccc(Cc2ccc(NC(C)=O)cc2)c(O)c1-c1cccc([N+](=O)[O-])c1` [P-190, N-[4-(2-Hydroxy-6-methoxy-3′-nitro-biphenyl-3-ylmethyl)-phenyl]-acetamide], the IC50 in assay [1] and in assay [2] was under 5 µM throughout.

With `COc1ccc(C[S+]([O-])c2ccc(F)cc2)cc1-c1cccc([N+](=O)[O-])c1` (stereo not shown) [P-192, 5-(4-Fluoro-benzenesulfinylmethyl)-2-methoxy-3′-nitro-biphenyl], the IC50 in assay [1] and in assay [2] was 5 to 20 µM throughout.

On to `COc1ccc(Oc2ccc(F)cc2)cc1-c1cccc([N+](=O)[O-])c1` [P-193, 5-(4-Fluoro-phenoxy)-2-methoxy-3′-nitrobiphenyl], for which the IC50 in assay [1] and in assay [2] was under 5 µM each time.

On to `COc1ccc(Cn2cc(C#N)ccc2=O)cc1-c1cccc([N+](=O)[O-])c1` [P-195, 1-(6-Methoxy-3′-nitro-biphenyl-3-ylmethyl)-6-oxo-1,6-dihydro-pyridine-3-carbonitrile], for which the results for the IC50 in assay [1] and in assay [2] were 5 to 20 µM and 21 to 40 µM, respectively.
